Experimental findings from ChEMBL document CHEMBL3352663, “Inhibition of group IVA cytosolic phospholipase A2 by thiazolyl ketones in vitro, ex vivo, and in vivo” (J Med Chem, 2014) are described below.

The assay relates to GVIA iPLA2 (Homo sapiens). Kind of assay: Inhibition of human recombinant GVIA iPLA2 using 400 uM Triton X-100/98.3 uM PAPC/1.7 uM 14C-labeled PAPC substrate mixedmicelles at 1 uM.
By inhibition is commonly meant how much of the control response was suppressed. Take `O=C(COc1ccc(-c2ccccc2)cc1)c1nccs1`: the inhibition came to 23%. For `O=C(COc1ccccc1)c1nccs1` the value was 13%.

As for `CCCCCCCCCCCCOCC(=O)c1nc(C(=O)OCC)cs1`, the inhibition was found to be 92%. `CCCCCCCCc1ccc(OCC(=O)c2nccs2)cc1`: the inhibition was found to be 67%. With `O=C(COc1ccc(F)cc1)c1nccs1`, the inhibition worked out at 5%. For `CCCCCCCCCCCCOCC(=O)c1nc(CC(=O)OCC)cs1` the value was 91%; for `CCCCCCCCc1ccc(OCC(=O)c2nc3ccccc3s2)cc1`, 77%. As to `CCCCCCCCc1ccc(OCC(=O)c2nc(CC(=O)OCC)cs2)cc1`, the inhibition is 76%.
